{"source": "ChEMBL document CHEMBL4024719", "about": "“Recent progress in the identification of selective butyrylcholinesterase inhibitors for Alzheimer's disease” (Eur J Med Chem, 2017)", "key": {"[1]": {"biological_target": "T1, Cholinesterase (Equus caballus, UniProt P81908)", "T1 sequence (P81908 whole entry)": "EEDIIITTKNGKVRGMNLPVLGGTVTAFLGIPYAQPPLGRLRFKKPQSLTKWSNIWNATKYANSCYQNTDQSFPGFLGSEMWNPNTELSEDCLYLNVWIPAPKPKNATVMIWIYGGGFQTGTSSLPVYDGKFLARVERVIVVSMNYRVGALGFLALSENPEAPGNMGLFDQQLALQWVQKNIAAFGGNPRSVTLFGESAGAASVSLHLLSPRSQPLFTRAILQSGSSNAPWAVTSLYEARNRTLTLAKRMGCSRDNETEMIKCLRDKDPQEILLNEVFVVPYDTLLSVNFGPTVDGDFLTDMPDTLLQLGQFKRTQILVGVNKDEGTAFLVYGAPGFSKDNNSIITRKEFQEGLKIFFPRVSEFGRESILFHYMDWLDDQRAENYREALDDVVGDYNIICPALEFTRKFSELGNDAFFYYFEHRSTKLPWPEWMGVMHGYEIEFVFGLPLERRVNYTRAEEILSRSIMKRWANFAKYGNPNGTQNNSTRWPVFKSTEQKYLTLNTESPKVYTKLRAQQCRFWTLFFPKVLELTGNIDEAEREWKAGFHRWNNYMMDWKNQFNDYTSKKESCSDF", "test": "Inhibition of equine serum BuChE using butyrylthiocholine iodide as substrate pretreated for 10 mins followed by substrate addition by DTNB reagent based spectrophotometric method"}, "[2]": {"biological_target": "T2, Acetylcholinesterase (Electrophorus electricus, UniProt O42275)", "T2 sequence (O42275 whole entry)": "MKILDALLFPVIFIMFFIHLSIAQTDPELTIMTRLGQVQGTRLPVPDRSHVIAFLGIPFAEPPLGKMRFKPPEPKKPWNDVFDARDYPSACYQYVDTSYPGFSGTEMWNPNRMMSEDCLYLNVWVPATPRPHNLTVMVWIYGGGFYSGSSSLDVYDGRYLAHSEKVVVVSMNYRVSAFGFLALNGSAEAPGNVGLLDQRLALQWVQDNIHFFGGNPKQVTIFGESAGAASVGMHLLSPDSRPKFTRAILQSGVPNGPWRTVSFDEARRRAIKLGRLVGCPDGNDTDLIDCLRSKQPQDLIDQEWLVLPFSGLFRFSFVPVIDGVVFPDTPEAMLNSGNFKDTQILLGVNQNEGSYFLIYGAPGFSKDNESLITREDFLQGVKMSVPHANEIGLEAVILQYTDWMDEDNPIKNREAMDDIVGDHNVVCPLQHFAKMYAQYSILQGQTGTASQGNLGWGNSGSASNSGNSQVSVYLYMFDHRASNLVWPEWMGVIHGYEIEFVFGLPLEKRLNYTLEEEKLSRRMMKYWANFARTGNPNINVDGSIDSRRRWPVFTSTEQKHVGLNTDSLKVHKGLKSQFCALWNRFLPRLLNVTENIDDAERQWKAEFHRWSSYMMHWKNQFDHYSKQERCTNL", "test": "Inhibition of electric eel AChE using acetylthiocholine iodide as substrate measured at 12 secs interval for 10 mins by Ellman's method"}, "[3]": {"biological_target": "T1, Cholinesterase", "test": "Inhibition of equine serum BChE using butyrylthiocholine iodide as substrate measured at 12 secs interval for 10 mins by Ellman's method"}, "[4]": {"test": "Selectivity ratio of IC50 for electric eel AChE to IC50 for equine serum BChE"}, "[5]": {"biological_target": "T3, Cholinesterase (Homo sapiens, UniProt P06276)", "T3 sequence (P06276 whole entry)": "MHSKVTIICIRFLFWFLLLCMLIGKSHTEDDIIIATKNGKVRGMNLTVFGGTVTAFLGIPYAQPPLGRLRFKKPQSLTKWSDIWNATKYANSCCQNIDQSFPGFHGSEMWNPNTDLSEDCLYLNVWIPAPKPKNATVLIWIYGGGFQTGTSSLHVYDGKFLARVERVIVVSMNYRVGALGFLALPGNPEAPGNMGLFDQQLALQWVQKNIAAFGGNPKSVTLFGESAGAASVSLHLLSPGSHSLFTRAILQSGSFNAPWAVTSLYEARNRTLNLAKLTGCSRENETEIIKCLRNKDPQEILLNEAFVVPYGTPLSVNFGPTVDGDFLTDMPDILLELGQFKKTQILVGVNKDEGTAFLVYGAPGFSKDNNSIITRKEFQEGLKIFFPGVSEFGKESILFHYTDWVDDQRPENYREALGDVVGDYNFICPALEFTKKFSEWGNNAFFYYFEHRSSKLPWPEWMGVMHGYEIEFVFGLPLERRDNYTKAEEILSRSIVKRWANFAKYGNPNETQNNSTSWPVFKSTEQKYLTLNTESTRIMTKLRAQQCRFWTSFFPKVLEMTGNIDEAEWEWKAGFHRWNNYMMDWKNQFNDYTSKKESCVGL", "test": "Inhibition of human plasma BuChE using butyrylthiocholine iodine as substrate pretreated for 10 mins followed by substrate addition measured for 5 mins by Ellman's method"}, "[6]": {"biological_target": "T1, Cholinesterase", "test": "Inhibition of equine serum BChE using butyrylthiocholine iodide as substrate"}, "[7]": {"biological_target": "T4, Acetylcholinesterase (Bos taurus, UniProt P23795)", "T4 sequence (P23795 whole entry)": "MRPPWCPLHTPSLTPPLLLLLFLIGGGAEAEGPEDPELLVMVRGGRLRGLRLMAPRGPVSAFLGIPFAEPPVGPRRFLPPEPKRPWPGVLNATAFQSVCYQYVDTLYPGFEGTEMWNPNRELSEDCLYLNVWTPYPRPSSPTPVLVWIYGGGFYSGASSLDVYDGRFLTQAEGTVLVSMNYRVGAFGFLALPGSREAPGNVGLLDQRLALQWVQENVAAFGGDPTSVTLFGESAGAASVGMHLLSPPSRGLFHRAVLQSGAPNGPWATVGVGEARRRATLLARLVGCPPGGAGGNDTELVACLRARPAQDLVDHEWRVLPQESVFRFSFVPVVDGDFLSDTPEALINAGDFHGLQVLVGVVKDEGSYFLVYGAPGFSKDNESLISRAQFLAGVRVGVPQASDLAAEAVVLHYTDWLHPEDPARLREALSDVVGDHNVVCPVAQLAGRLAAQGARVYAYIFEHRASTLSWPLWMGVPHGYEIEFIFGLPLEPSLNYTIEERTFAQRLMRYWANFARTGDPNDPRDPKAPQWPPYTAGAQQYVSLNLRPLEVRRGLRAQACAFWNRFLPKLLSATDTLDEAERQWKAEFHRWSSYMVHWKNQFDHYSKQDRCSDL", "test": "Inhibition of fetal bovine serum AChE using acetylthiocholine iodide as substrate"}, "[8]": {"biological_target": "T3, Cholinesterase", "test": "Inhibition of human serum BuChE using butyrylthiocholine iodide as substrate pretreated for 20 mins followed by substrate addition by DTNB reagent based spectrophotometric method"}, "[9]": {"test": "Cytotoxicity against human T67 cells assessed as cell viability at 10 uM after 24 hrs by resazurin dye based spectrofluorimetric method relative to control", "conditions": "read-out: Activity"}, "[10]": {"test": "Cytotoxicity against human T67 cells assessed as cell viability at 50 uM after 24 hrs by resazurin dye based spectrofluorimetric method relative to control", "conditions": "read-out: Activity"}, "[11]": {"biological_target": "Amyloid-beta precursor protein (Homo sapiens) (UniProt P05067)", "sequence (P05067 whole entry)": "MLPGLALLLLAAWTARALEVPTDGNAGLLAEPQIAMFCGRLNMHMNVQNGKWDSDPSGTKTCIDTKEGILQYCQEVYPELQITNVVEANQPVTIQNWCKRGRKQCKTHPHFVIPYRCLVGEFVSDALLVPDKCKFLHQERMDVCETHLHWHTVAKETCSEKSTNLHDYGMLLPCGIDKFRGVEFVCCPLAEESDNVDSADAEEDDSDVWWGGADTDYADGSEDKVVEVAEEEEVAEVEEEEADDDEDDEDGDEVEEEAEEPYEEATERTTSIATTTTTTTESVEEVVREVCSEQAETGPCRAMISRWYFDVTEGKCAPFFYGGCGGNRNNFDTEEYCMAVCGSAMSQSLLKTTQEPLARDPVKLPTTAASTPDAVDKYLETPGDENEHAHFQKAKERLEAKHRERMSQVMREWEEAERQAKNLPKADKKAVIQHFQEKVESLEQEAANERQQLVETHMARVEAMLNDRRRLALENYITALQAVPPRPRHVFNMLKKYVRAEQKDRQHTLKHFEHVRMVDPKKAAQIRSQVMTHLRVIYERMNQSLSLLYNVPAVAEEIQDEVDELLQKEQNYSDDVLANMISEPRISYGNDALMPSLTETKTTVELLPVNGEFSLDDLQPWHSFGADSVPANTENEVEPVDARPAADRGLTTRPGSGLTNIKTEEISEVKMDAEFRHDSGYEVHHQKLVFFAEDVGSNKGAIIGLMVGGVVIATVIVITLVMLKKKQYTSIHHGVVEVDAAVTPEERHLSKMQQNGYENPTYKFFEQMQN", "test": "Inhibition of HFIP-pretreated amyloid beta (1 to 42) (unknown origin) self-induced aggregation at 50 uM after 24 hrs by thioflavin-T fluorescence assay relative to control"}, "[12]": {"biological_target": "Acetylcholinesterase (Electrophorus electricus) (UniProt O42275)", "sequence (O42275 24-633 limits assumed)": "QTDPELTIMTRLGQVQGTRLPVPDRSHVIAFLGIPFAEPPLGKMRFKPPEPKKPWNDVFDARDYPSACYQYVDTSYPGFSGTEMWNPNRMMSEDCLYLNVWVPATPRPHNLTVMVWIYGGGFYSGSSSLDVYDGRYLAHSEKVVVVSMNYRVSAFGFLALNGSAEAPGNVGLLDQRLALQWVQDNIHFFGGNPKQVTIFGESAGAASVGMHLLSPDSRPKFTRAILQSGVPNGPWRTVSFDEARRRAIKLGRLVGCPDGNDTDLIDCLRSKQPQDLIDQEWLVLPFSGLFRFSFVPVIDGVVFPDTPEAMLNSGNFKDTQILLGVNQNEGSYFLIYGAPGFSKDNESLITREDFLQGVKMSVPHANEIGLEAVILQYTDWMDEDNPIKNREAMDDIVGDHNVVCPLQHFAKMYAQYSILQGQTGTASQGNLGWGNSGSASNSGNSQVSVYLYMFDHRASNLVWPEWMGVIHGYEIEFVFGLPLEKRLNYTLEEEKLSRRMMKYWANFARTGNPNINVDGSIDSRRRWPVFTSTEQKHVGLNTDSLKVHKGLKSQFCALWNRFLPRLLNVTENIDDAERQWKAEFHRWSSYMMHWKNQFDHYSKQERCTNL", "test": "Inhibition of electric eel AChE-induced human amyloid beta (1 to 40 residues) at 100 uM by thiofalvin-T fluorescence assay relative to control"}, "[13]": {"biological_target": "T2, Acetylcholinesterase", "test": "Inhibition of electric eel AChE using acetylthiocholine iodide as substrate pretreated for 6 mins followed by substrate measured at 60 secs interval for 180 secs by Ellman's method"}, "[14]": {"biological_target": "T1, Cholinesterase", "test": "Inhibition of equine serum BuChE using s-butyrylthiocholine iodide as substrate pretreated for 6 mins followed by substrate addition measured at 60 secs interval for 180 secs by Ellman's method"}, "[15]": {"biological_target": "T3, Cholinesterase", "test": "Inhibition of human […] BuChE using s-butyrylthiocholine as substrate pretreated for 30 mins followed by substrate addition after 25 mins by spectrophotometric method"}, "[16]": {"biological_target": "Acetylcholinesterase (Homo sapiens, UniProt P22303)", "sequence (P22303 whole entry)": "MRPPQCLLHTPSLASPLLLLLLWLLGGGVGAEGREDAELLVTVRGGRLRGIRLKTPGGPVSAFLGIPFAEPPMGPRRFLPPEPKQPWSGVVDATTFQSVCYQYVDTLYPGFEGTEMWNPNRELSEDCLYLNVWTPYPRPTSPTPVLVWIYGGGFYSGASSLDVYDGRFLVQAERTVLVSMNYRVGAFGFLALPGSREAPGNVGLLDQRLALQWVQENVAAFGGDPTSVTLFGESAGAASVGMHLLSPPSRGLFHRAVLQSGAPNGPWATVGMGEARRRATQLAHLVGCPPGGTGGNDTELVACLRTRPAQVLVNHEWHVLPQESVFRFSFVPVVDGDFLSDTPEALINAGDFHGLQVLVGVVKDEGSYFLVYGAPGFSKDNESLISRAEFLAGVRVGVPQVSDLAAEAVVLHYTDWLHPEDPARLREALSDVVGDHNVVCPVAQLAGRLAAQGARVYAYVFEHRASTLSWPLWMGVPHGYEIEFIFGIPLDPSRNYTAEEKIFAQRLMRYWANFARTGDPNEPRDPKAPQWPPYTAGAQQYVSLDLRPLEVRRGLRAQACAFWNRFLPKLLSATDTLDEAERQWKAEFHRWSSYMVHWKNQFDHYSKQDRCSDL", "test": "Inhibition of human […] AChE using acetyl-(beta-methyl)thiocholine as substrate pretreated for 30 mins followed by substrate addition after 25 mins by spectrophotometric method"}, "[17]": {"biological_target": "T3, Cholinesterase", "test": "Inhibition of BuChE (unknown origin)"}, "[18]": {"biological_target": "T3, Cholinesterase", "test": "Inhibition of human BuChE"}, "[19]": {"species_on_record": "Homo sapiens", "test": "Selectivity ratio of IC50 for human erythrocytes AChE to IC50 for human serum BuChE"}, "[20]": {"tested_on": "Rattus norvegicus", "test": "In-vivo inhibition of BuChE in Harlan-Wistar rat brain assessed as increase in acetylcholine level at 1.25 mg/kg, ip by microdialysis method relative to control", "format": "functional"}, "[21]": {"tested_on": "Rattus norvegicus", "test": "In-vivo inhibition of BuChE in Harlan-Wistar rat brain assessed as increase in acetylcholine level at 2.5 mg/kg, ip by microdialysis method relative to control", "format": "functional"}, "[22]": {"biological_target": "Amyloid-beta precursor protein (Homo sapiens) (UniProt P05067)", "test": "Inhibition of amyloid beta (1 to 42) (unknown origin) self-aggregation at 25 uM incubated for 30 mins measured every 5 mins for 14 hrs by thioflavin T fluorescence assay relative to control"}, "[23]": {"test": "Cytotoxicity against human SH-SY5Y cells assessed as cell viability at 25 uM after 24 hrs by MTT assay relative to control", "format": "cell-based", "conditions": "read-out: Activity"}}}
{"compound": "CCN1CCc2c(c3cc(F)ccc3n2CCC(=O)N2c3ccccc3Sc3ccccc32)C1", "values": [{"measurement": "IC50", "setting": "[1]", "value": 0.39, "unit": "µM"}]}
{"compound": "Oc1ccccc1/C=C/c1cc(O)c(F)c(O)c1", "values": [{"measurement": "IC50", "setting": "[2]", "value": 960, "unit": "µM"}, {"measurement": "IC50", "setting": "[3]", "value": 10, "unit": "µM"}, {"measurement": "Ratio IC50", "setting": "[4]", "value": 96}]}
{"compound": "COc1ccc(N[C@@H]2CCC[C@@H](OC(=O)N(C)C)C2)cc1", "values": [{"measurement": "IC50", "setting": "[5]", "value": 110, "unit": "µM"}]}
{"compound": "c1ccc2c(NCCCCCCCSc3c4c(nc5ccccc35)CCCC4)c3c(nc2c1)CCCC3", "values": [{"measurement": "IC50", "setting": "[6]", "value": 0.035, "unit": "µM"}, {"measurement": "IC50", "setting": "[7]", "value": 0.34, "unit": "µM"}]}
{"compound": "Oc1ccc(/C=C/c2cc(O)cc(O)c2)cc1", "note": "[RESVERATROL]", "values": [{"measurement": "IC50", "setting": "[2]", "value": "> 1000", "unit": "µM"}, {"measurement": "IC50", "setting": "[3]", "value": 400, "unit": "µM"}]}
{"compound": "c1ccc2c(SCCCCCCCSc3c4c(nc5ccccc35)CCCC4)c3c(nc2c1)CCCC3", "values": [{"measurement": "IC50", "setting": "[6]", "value": 0.38, "unit": "µM"}, {"measurement": "IC50", "setting": "[7]", "value": "> 10", "unit": "µM"}]}
{"compound": "CC(C(=O)NCCCCCCCCNc1c2c(nc3ccccc13)CCCC2)c1ccc(-c2ccccc2)c(F)c1", "note": "(stereo not drawn)", "values": [{"measurement": "Ratio IC50", "setting": "[4]", "value": 16.4}]}
{"compound": "COc1ccccc1CN1CCN(Cc2ccc3cccnc3c2O)CC1", "values": [{"measurement": "IC50", "setting": "[8]", "value": 5.71, "unit": "µM"}, {"measurement": "viability at 24 h, 10 µM", "setting": "[9]", "value": "> 90", "unit": "%"}, {"measurement": "viability at 24 h, 50 µM", "setting": "[10]", "value": 81, "unit": "%"}, {"measurement": "inhibition", "setting": "[11]", "value": 44.2, "unit": "%"}]}
{"compound": "O=C(NCCCCCCNc1c2c(nc3ccccc13)CCCCC2)c1cc(O)c2c(c1)C(=O)c1cccc(O)c1C2=O", "values": [{"measurement": "Ratio IC50", "setting": "[4]", "value": 11}, {"measurement": "inhibition", "setting": "[12]", "value": 64.8, "unit": "%"}, {"measurement": "IC50", "setting": "[13]", "value": 0.13, "unit": "µM"}, {"measurement": "IC50", "setting": "[14]", "value": 0.011, "unit": "µM"}]}
{"compound": "CC(C)c1ccc(NC(=O)Oc2ccc3c(c2)[C@]2(C)CCC(C)[C@@H]2C3C)cc1", "note": "(stereo partly drawn)", "values": [{"measurement": "IC50", "setting": "[15]", "value": 0.05, "unit": "µM"}, {"measurement": "IC50", "setting": "[16]", "value": 0.76, "unit": "µM"}]}
{"compound": "Oc1ccc(-c2cnc3ccccc3n2)cc1", "values": [{"measurement": "IC50", "setting": "[17]", "value": 7.7, "unit": "µM"}]}
{"compound": "COc1ccc(Cn2cc(CNc3c4c(nc5ccccc35)CCCC4)nn2)cc1", "values": [{"measurement": "IC50", "setting": "[18]", "value": 0.055, "unit": "µM"}]}
{"compound": "c1ccc(CNc2c3c(nc4ccccc24)CCCC3)nc1", "values": [{"measurement": "Ratio IC50", "setting": "[19]", "value": 957}]}
{"compound": "CC(=O)N(CCCNc1c2c(nc3ccccc13)CCCC2)CCNc1c2c(nc3ccccc13)CCCC2", "values": [{"measurement": "IC50", "setting": "[6]", "value": 0.002, "unit": "µM"}, {"measurement": "IC50", "setting": "[7]", "value": 1.5, "unit": "µM"}]}
{"compound": "COc1ccc(N[C@H]2CCC[C@@H](OC(=O)N(C)C)C2)cc1", "values": [{"measurement": "IC50", "setting": "[5]", "value": 110, "unit": "µM"}]}
{"compound": "CC(C)c1ccc(NC(=O)Oc2ccc3c(c2)[C@]2(C)CCN(CCc4ccccc4)[C@@H]2N3C)cc1", "values": [{"measurement": "inhibition in vivo at 1.25 mg/kg", "setting": "[20]", "value": 180, "unit": "%"}, {"measurement": "inhibition in vivo at 2.5 mg/kg", "setting": "[21]", "value": 290, "unit": "%"}]}
{"compound": "COc1ccc(CNc2c3c(nc4ccccc24)CCCC3)cc1OC", "values": [{"measurement": "Ratio IC50", "setting": "[19]", "value": 110}, {"measurement": "inhibition", "setting": "[22]", "value": 40, "unit": "%"}, {"measurement": "viability at 24 h, 25 µM", "setting": "[23]", "value": 58.9, "unit": "%"}]}
